{"source": "patent US20220016196A1", "about": "“Aloe Based Compositions Comprising Polysaccharides and Polyphenols for Regulation of Homeostasis of Immunity” (Unigen, Inc., priority 2020, published 2022)", "key": {"[1]": {"test_system": "Pseudomonas aeruginosa", "test": "Bacterial clearance in the airways in hyperoxic and PA infected mice", "assay_type": "in vivo, mouse", "details": "24 hours after infection"}, "[2]": {"test_system": "Pseudomonas aeruginosa (PA) infected hyperoxic mice", "test": "Hyperoxia-induced mortality in Pseudomonas aeruginosa (PA)-infected mice", "assay_type": "in vivo, mouse"}, "[3]": {"test_system": "hyperoxic and PA infected mice", "test": "Oxidative stress-exacerbated acute lung injury induced by bacterial infection (BAL total protein, biomarkers, histology)", "assay_type": "in vivo, mouse", "details": "hyperoxia + PA infected mice, Resveratrol 50 mg/kg"}, "[4]": {"test_system": "HMGB1", "test": "Inhibition of hyperoxia-induced HMGB1 release from macrophages (ELISA)", "assay_type": "cell-based, mouse", "details": "RAW 264.7 cells, 95% O2 24 hours, test substance 25 μg/mL, ELISA of supernatant", "protocol": "Macrophages cultured under hyperoxic conditions experience oxidative stress, causing them to secrete HMGB1 to the cell culture media. To determine the efficacy of the Aloe-based composition and its components in reducing the accumulation of extracellular HMGB1 of cultured macrophages, RAW 264.7 cells were exposed for 24 hours to either 21% O2 (room air (RA)), or 95% O2 in the presence or absence of test substance at 25 μg/mL concentration. HMGB1 levels in cell culture supernatants were determined by ELISA at a single concentration of test substance in duplicate. The data are expressed as mean±SEM of one experiment assayed in duplicate. *p<0.05, **p<0.01, ****p<0.0001 compared to macrophages treated under hyperoxia with vehicle only. Control cells were treated with Sodium Salicylate (SS) as a positive control, which attenuates hyperoxia-compromised macrophage function and oxidative-stress-induced HMGB 1 release."}, "[5]": {"test_system": "acute ear edema induced by tetradecanoyl phorbol acetate (TPA)", "details": "acute ear edema induced by TPA (Cuellar et al 1997); cited from earlier work"}, "[6]": {"details": "DPPH assay, 100 mg/L (Hu et al., 2003); cited from earlier work"}, "[7]": {"test_system": "HSF cells (Human fibroblasts)", "test": "DNA damage of human fibroblasts induced by hydrogen peroxide (γH2AX)", "assay_type": "cell-based", "details": "γH2AX staining, H2O2 1 mM 4 h", "protocol": "HSF cells (Human fibroblasts) were seeded in 96-well tissue culture plates and incubated at 37° C. and in 5% CO2 and 95% air with test substances. Treated HSF cells were subjected to DNA damage by incubating with H2O2 at a concentration of 1 mM for 4 h, then immunostained for γH2AX, a phosphorylated histone that is a marker of DNA double strand breaks. DAPI was used to stain the cell nucleus. Pictures taken by Image Xpress and analyzed with Meta Xpress. Catechin (100 μg/ml) was used as positive control with 70% reduction of DNA damage, as assessed by quantification of γH2AX staining. […]. Rosmarinic acid reduced DNA damage by 24% at 25 μg/mL."}, "[8]": {"test_system": "HaCaT cells", "test": "UVA&UVB induced ROS assay in HaCaT cell", "assay_type": "cell-based, human", "details": "positive control, 40 μg/mL", "protocol": "HaCaT cells (Human immortal keratinocyte cells) were seeded at a density of 8,000 cells/well in 96-well tissue culture plates and treated for 24 hours with test substance at 25 μg/mL. […] DCFH-DA (a fluorescent probe) was added to cells to detect ROS production and incubated at 37° C. for 25 minutes. After exposure to UV irradiation under the solar simulator (Sol-UV-6 Solar Simulator) with ultraviolet filter for 10 minutes, the fluorescence value was measured at 488 nm (excitation) and 525 nm (emission) by Multimode Reader. […] Organic extracts (OE) were tested at 50 μg/mL, while aqueous extracts were tested at 100 μg/mL. Fractions or pure compounds were tested at 25 μg/mL in this assay."}, "[9]": {"target": "phospholipase A2", "details": "phospholipase A2 from snake venom (Cuéllar et al 1996); cited from earlier work"}, "[10]": {"test_system": "RAW 264.7 cells", "test": "MTT assay in cultured RAW 264.7 cells under hyperoxia", "assay_type": "cell-based, mouse", "details": "RAW 264.7, 95% O2 24 hours", "protocol": "Cell viability was determined by MTT assay."}, "[11]": {"test_system": "RAW 264.7 cells", "test": "Hyperoxia-induced dysfunctional macrophage phagocytosis assay", "assay_type": "cell-based, mouse", "details": "RAW 264.7, 95% O2 24 hours, beads per cell as percent increase", "method": "RAW 264.7 cells either remained at room air (21% O2) or were exposed to 95% O2 for 24 hours in the presence of test substance. Cells were then incubated with FITC-labeled latex mini-beads for 1 hour and stained with phalloidin and DAPI to visualize the actin cytoskeleton and nuclei, respectively. For quantification of phagocytic activity, at least 200 cells per group were counted and the numbers of beads per cell were represented as a percent increase compared to the 21% 02 (0 μg/ml) control group. Each value represents the mean±SEM of 3 independent experiments for each group, in duplicate. *, P<0.05 compared to the 21% O2 (0 μg/ml) control group."}, "[12]": {"test_system": "HaCaT cells", "test": "Cytotoxicity (CCK viability) in HaCaT cells", "assay_type": "cell-based, human", "details": "25 μg/mL", "protocol": "HaCaT cells (Human immortal keratinocyte cells) were seeded at a density of 8,000 cells/well in 96-well tissue culture plates and treated for 24 hours with test substance at 25 μg/mL. Cytotoxicity was evaluated to remove false positives (CCK >80% viability). DCFH-DA (a fluorescent probe) was added to cells to detect ROS production and incubated at 37° C. for 25 minutes. After exposure to UV irradiation under the solar simulator (Sol-UV-6 Solar Simulator) with ultraviolet filter for 10 minutes, the fluorescence value was measured at 488 nm (excitation) and 525 nm (emission) by Multimode Reader. Vitamin C was used as positive control treated at 40 μg/mL with 43% reduction of ROS production. At 25 μg/mL, Rosmarinic acid decreased ROS generation by 24%, compared to the level of UV exposed HaCaT cells. Organic extracts (OE) were tested at 50 μg/mL, while aqueous extracts were tested at 100 μg/mL. Fractions or pure compounds were tested at 25 μg/mL in this assay."}}, "note": "pIC50: −log10 of the molar value."}
{"compound": "Oc1ccc(C=Cc2cc(O)cc(O)c2)cc1", "note": "[resveratrol]", "values": [{"measurement": "Bacterial load in the airways, ×10^5 CFU/mL (Mean ± SE)", "setting": "[1]; RES 50 mg/kg, hyperoxic and PA infected mice", "value": "2.4 ± 0.7 ×10^5 CFU/mL"}, {"measurement": "bacterial load in the airways vs hyperoxia + vehicle (O2)", "setting": "[1]; UP360 500 mg/kg, Resveratrol 50 mg/kg oral, >99% O2 48 hours, PA intranasal", "value": "airway bacterial load was significantly lower"}, {"measurement": "mortality rate", "setting": "[2]; 7 days prophylactic treatment, hyperoxia 2 days, PA inoculated, 24 hours post-inoculation", "value": 27, "unit": "%"}, {"measurement": "Dead animals", "setting": "[2]; RES 50 mg/kg, hyperoxia + PA inoculation, 11 total animals", "value": 3}, {"measurement": "Mortality %", "setting": "[2]; RES 50 mg/kg, hyperoxia + PA inoculation, 24 hours post-inoculation", "value": 27.27, "unit": "%"}, {"measurement": "lung injury", "setting": "[3]", "value": "significantly reduce lung injury"}]}
{"compound": "CC(=O)Cc1cc(=O)c2c(C)cc(O)c([C@@H]3O[C@H](CO)[C@@H](O)[C@H](O)[C@H]3O)c2o1", "note": "[Aloesin]", "values": [{"measurement": "HMGB1 inhibition", "setting": "[4]", "value": 52.47}]}
{"compound": "hydrotumulosic acid", "values": [{"measurement": "IC50", "setting": "[5]", "value": 0.68, "unit": "nmol/ear"}]}
{"compound": "Cc1cc(C(C)(C)C)c(O)c(C(C)(C)C)c1", "note": "[butylated hydroxytoluene]", "values": [{"measurement": "radical scavenging activity", "setting": "[6]", "value": 70.52, "unit": "%"}]}
{"compound": "Catechin", "values": [{"measurement": "reduction of DNA damage", "setting": "[7]; 100 μg/ml", "value": 70, "unit": "%"}]}
{"compound": "O=C1O[C@H]([C@@H](O)CO)C(O)=C1O", "note": "[Vitamin C]", "values": [{"measurement": "reduction of ROS production", "setting": "[8]", "value": 43, "unit": "%"}]}
{"compound": "C=C(CC[C@@H](C(=O)O)[C@H]1[C@H](O)C[C@@]2(C)C3=CC[C@H]4C(C)(C)[C@@H](O)CC[C@]4(C)C3=CC[C@]12C)C(C)C", "note": "[dehydrotumulosic acid]", "values": [{"measurement": "pIC50", "setting": "[9]", "value": 3.07}]}
{"compound": "O=C(/C=C/c1ccc(O)c(O)c1)O[C@H](Cc1ccc(O)c(O)c1)C(=O)O", "note": "[Rosmarinic acid]", "values": [{"measurement": "inhibition at 25 µg/mL", "setting": "[4]; Mus musculus, RAW264.7", "value": 73, "unit": "%"}, {"measurement": "MTT (% reduction)", "setting": "[10]; 12 μg/mL", "value": 5.63, "unit": "%"}, {"measurement": "MTT (% reduction)", "setting": "[10]; 25 μg/mL", "value": 13.47, "unit": "%"}, {"measurement": "MTT (% reduction)", "setting": "[10]; 50 μg/mL", "value": 20.03, "unit": "%"}, {"measurement": "MTT (% reduction)", "setting": "[10]; 100 μg/mL", "value": 20.53, "unit": "%"}, {"measurement": "Phagocytosis", "setting": "[11]; 12 μg/mL", "value": 51.00, "unit": "%"}, {"measurement": "Phagocytosis", "setting": "[11]; 25 μg/mL", "value": 74.35, "unit": "%"}, {"measurement": "reduction of DNA damage", "setting": "[7]; 25 μg/mL", "value": 24, "unit": "%"}, {"measurement": "Viability (%)", "setting": "[12]", "value": 57, "unit": "%"}]}
{"compound": "Cc1c(C)c2c(c(C)c1O)CC[C@@](C)(CCC[C@H](C)CCC[C@H](C)CCCC(C)C)O2", "note": "[a-tocopherol]", "values": [{"measurement": "radical scavenging activity", "setting": "[6]", "value": 65.20, "unit": "%"}]}
